Source: patent publication US20230348394A1, “COMPOSITIONS AND METHODS FOR TREATING MUSCULAR DYSTROPHIES” (The Regents of the University of California, priority 2020, published 2023)

Experiments:
SSPN gene expression = SSPN gene expression (qPCR) in dystrophin-deficient H2K mdx myotubes; assay type: cell-based, murine; settings: 0.5 to 50 μM
Method: C2C12 cells (American Type Culture Collection) were grown at 37° C. with 5% CO2 in growth medium containing DMEM (Gibco) with 20% FBS (Sigma-Aldrich). Upon reaching 90-100% confluency, myoblasts were induced to differentiate by replacing the medium with differentiation medium consisting of DMEM with 2% horse serum (Sigma-Aldrich). Conditionally immortalized H2K WT and mdx myoblasts with a nonsense mutation in exon 23 of dystrophin were a gift from Terrance Partridge, Ph.D. (Children's National Medical Center, Washington, D.C.). […]
RNA from myotubes treated for 48 hrs was extracted from cells using Trizol-based (Thermo Fisher Scientific) phase separation, Chomczynski et al., Biotechniques. […] RNA concentrations were determined using a NanoDrop 1000 (Thermo Fisher Scientific) and 750 ng of RNA in a 20 Id reaction was reverse transcribed using iScript cDNA synthesis (Bio-Rad) with the following cycling conditions: 25° C. for 5 mins, 42° C. for 30 mins, 85° C. for 5 mins. […] For qPCR of human samples, TaqMan assays were used to quantify SSPN (assay ID Hs01025520m 1) and ACTB (assay ID Hs01060665_g1) with the following reaction conditions: 50° C. for 2 mins, 95° C. for 10 mins, 40 cycles of 95° C. for 15 seconds and 62° C. for 1 minute. […]

[1] = Half-life analysis in PBS pH 7.4; assay type: physicochemical; settings: PBS pH 7.4, 37° C.
Method: Half-life analysis was performed by Eurofins Panlabs Inc. using 1 μM of compound with a final DMSO concentration of 0.5%. PBS or plasma from CD-1 mice was pre-warmed to 37° C. for 5 mins before addition of the test compounds and continued incubation at 37° C. At 0, 30, 60, 120, 240, and 1440 mins an aliquot of solution containing compounds was mixed with acetonitrile/methanol, mixed, and centrifuged. The supernatants were used for HPLC-MS/MS analysis.

SSPN protein = assay: Sarcospan immunoblot of H2K mdx myotubes; assay type: cell-based, murine; settings: 2.5 to 10 μM, 48 hours
Method: Myotubes treated for 48 hrs were lysed using RIPA buffer (Thermo Fisher Scientific) containing Halt Protease Inhibitor Cocktail (Thermo Fisher Scientific). Cell lysates in RIPA buffer were rocked for 1 hr at 4° C. and centrifuged at 1,000 RPM for 30 mins at 4° C. The supernatant was collected, quantified for protein concentration using the DC protein assay (Bio-Rad), and normalized to 2 mg/ml in water and Laemmli sample buffer with a final concentration of 10% glycerol (Sigma-Aldrich), 5% beta-mercaptoethanol (Sigma-Aldrich), 3% sodium dodecyl sulfate (Sigma-Aldrich), and 0.05% bromophenol blue (Sigma-Aldrich). […] Autoradiography films were developed using a SRX-101A tabletop processor (Konica Minolta), scanned to a digital file, and analyzed by densitometry of bands using ImageJ version 1.51 s. […]
After excluding compounds that were unstable in solution or that produced highly variable results, nine compounds remained. […] To determine if the increase in SSPN mRNA was also evident at the protein level, we treated mdx myotubes with 2.5 to 10 μM of OT-9, PC1-36, and PC1-42 and analyzed total protein lysates by immunoblotting with SSPN antibodies.

half-life at 1 μM [1]: 49 min
SMILES: CCN(CC)c1ccc2cc(C(=O)Nc3ccc(C(=O)N4CCCCCC4)cc3)c(=O)oc2c1 [OT-9]
concentration at which the concentration-dependent SSPN mRNA response peaked (SSPN gene expression): 5.5 µM | increase of SSPN protein levels (SSPN protein): 1.5 fold
